# Results published in patent publication US20240238313A1, “DOSING OF CV-10155 IN THE EVENING OR PRIOR TO SLEEP TO TREAT GABAA DISORDERS” (priority 2021, published 2024).
# “And” between values parts separate entries of the source, which are not always exact repeats. Equal values may be shown once. “Also recorded” adds a separate entry of the source. Read-outs that look alike come from different tables or passages of the source.
# How the values were obtained:
# [1] = humans, single oral dose, range of 5-135 mg
# [2] = human, in vivo, 60 mg
# [3] = molecular target: α4β3δ GABAA receptors (extra synaptic) (Homo sapiens, UniProt P28472+P48169); settings: compositions containing isomerically pure compound; described in U.S. Pat. No. 10,857,163; cited from earlier work
# [4] = 60 mg CV-10155 orally once per day for seven days in humans (MAD): PK and adverse events
# [5] = test system: Forced swim test; test: Forced swim test - Depression; parameters: species or system rodent; settings: in vivo
# [6] = cited from earlier work
# [7] = 10 mg in HPMC-AS formulation PO, fed cohort, individual dogs #9-12 and mean (r14)
# [8] = 10 mg in HPMC-AS formulation PO, pentagastrin/fasted cohort, individual dogs #1-4 and mean (r14)
# [9] = 30 mg in HPMC-AS formulation PO, pentagastrin/fasted cohort, individual dogs #13-16 and mean (r14)
# [10] = 60 mg, evening, fed state, N = 9
# [11] = 60 mg, morning, fasted state, N = 9
# Sequence of α4β3δ GABAA receptors (extra synaptic) (P48169 36-554): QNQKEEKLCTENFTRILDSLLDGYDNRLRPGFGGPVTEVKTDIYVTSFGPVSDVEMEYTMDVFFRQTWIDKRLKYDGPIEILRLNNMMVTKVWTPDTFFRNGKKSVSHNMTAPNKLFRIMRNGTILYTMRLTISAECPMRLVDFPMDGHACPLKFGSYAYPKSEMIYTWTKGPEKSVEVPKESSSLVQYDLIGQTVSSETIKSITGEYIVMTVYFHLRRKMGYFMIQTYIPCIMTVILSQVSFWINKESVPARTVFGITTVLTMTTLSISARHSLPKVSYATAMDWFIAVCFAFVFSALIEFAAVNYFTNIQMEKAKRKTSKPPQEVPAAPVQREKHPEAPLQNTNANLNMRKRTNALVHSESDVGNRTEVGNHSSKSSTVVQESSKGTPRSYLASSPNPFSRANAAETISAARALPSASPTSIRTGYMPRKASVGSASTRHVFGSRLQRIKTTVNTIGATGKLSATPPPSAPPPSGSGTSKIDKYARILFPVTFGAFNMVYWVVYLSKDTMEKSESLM
# Sequence of α4β3δ GABAA receptors (extra synaptic) (P28472 26-473): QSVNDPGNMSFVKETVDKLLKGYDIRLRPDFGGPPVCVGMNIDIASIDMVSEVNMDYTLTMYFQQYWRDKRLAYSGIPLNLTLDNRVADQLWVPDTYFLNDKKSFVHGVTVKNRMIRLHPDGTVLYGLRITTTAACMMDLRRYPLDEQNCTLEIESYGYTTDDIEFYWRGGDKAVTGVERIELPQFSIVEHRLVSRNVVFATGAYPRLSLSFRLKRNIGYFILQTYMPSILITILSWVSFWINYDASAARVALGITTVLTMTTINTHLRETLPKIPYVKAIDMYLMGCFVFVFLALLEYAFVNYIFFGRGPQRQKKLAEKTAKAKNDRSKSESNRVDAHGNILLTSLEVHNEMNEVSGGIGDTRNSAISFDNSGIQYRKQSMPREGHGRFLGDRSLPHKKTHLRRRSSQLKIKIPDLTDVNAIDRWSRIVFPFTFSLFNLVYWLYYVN
# Sequence of α4β3δ GABAA receptors (extra synaptic) (O14764 17-452 partner limits assumed): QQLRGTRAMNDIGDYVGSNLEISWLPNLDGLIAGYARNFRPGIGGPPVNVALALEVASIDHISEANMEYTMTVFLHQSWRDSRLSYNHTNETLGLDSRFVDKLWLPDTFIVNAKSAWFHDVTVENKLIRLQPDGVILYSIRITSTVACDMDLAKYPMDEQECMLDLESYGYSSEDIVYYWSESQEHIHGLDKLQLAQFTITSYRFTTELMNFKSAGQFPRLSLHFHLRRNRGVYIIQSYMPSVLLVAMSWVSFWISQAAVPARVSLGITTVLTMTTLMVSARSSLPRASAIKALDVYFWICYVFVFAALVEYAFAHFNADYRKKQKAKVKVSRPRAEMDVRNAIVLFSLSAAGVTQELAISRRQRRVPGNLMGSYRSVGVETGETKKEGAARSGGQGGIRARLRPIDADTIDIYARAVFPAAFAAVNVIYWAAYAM
smiles,measurement,setting,value
"C[C@@]1(O)CC[C@@]2(C)[C@@H](CC[C@@H]3[C@@H]2CC[C@]2(C)[C@@H](C(=O)Cn4cc(C#N)cn4)CC[C@@H]32)C1 [CV-10155, 1-[2-[(3R,5S,8R,9S,10S,13S,14S,17S)-3-hydroxy-3,10,13-trimethyl-1,2,4,5,6,7,8,9,11,12,14,15,16,17-tetradecahydrocyclopenta[a]phenanthren-17-yl]-2-oxoethyl]pyrazole-4-carbonitrile]",AUCInf,[7],2440 ng·h/mL
same,AUCInf/D,[7],5602 kg·ng·h/mL/mg and 2929 kg·ng·h/mL/mg and 2273 kg·ng·h/mL/mg and 4084 kg·ng·h/mL/mg
same,T1/2,[7],12.5 h
same,Tmax,[7],1.13 h
same,AUCInf,[8],2612 ng·h/mL
same,AUCInf/D,[8],2762 kg·ng·h/mL/mg and 2441 kg·ng·h/mL/mg and 3314 kg·ng·h/mL/mg and 2821 kg·ng·h/mL/mg
same,Tmax,[8],1.50 h
same,AUCInf/D,[9],4995 kg·ng·h/mL/mg and 3157 kg·ng·h/mL/mg and 1572 kg·ng·h/mL/mg and 2982 kg·ng·h/mL/mg
same,T1/2,[9],12.3 h
same,dose-limiting adverse events,[1],No dose-limiting adverse events
same,Racc Cmax,[2],1.78
same,preferential potentiation of α4β3δ as compared to α1β2γ2 GABAA receptors,[3],preferentially potentiate α4β3δ GABAA receptors
same,"AE Back pain, #",[4]; [10],1
same,"AE Bloating, #",[4]; [10],1
same,"AE Dizziness, #",[4]; [10],1
same,"AE Headache, #",[4]; [10],2
same,"AE Sleepiness, #","[4]; 60 mg, evening, fed state, N = 9 (two separate table lines)",1
same,"AE Dizziness, #",[4]; [11],1
same,"AE Feeling sleepy, #",[4]; [11],1
same,"AE Feeling tired, #",[4]; [11],2
same,"AE Headache, #",[4]; [11],2
same,"AE Sleepiness, #",[4]; [11],9
same,"AE Tiredness, #",[4]; [11],3
same,tolerability profile compared to PRAX-114 and Sage-217,"[4]; humans, 60 mg dosed in the evening",favorable tolerability profile compared to PRAX-114
same,exposure levels compared with 30 mg doses of Sage-217,"[4]; humans, 60 mg doses",higher exposure levels
same,AE,"[4]; humans, CV-10155 in the evening in a fed state, individual subjects",Headache; also recorded: Somnolence; also recorded: Back pain; also recorded: Abdominal distension; also recorded: Dizziness
same,Severity,"[4]; humans, evening, fed state, per AE of the same table row",Moderate and Mild
same,adverse effects interfering with sleeping,"[4]; humans, oral, evening, fed subjects",does not produce adverse effects that interfere with sleeping
C[C@@]1(O)CC[C@H]2[C@H](CC[C@@H]3[C@@H]2CC[C@]2(C)[C@@H](C(=O)Cn4cc(C#N)cn4)CC[C@@H]32)C1 [Sage-217],Doses tested in Forced swim test - Depression (* significantly efficacious dose),[5],1 - 3* mg/kg
same,"Any AE, (%)",[6]; 20 mg (n-188),50.0%
same,"Diarrhea, (%)",[6]; 20 mg (n-188),5.9%
same,"Dizziness, (%)",[6]; 20 mg (n-188),7.4%
same,"Fatigue, (%)",[6]; 20 mg (n-188),1.6%
same,"Headache, (%)",[6]; 20 mg (n-188),11.2%
same,"Nausea, (%)",[6]; 20 mg (n-188),5.3%
same,"Sedation, (%)",[6]; 20 mg (n-188),5.9%
same,"Somnolence, (%)",[6]; 20 mg (n-188),5.9%
same,"Any AE, (%)",[6]; 30 mg (n-192),54.2%
same,"Diarrhea, (%)",[6]; 30 mg (n-192),6.3%
same,"Dizziness, (%)",[6]; 30 mg (n-192),5.7%
same,"Fatigue, (%)",[6]; 30 mg (n-192),6.8%
same,"Headache, (%)",[6]; 30 mg (n-192),6.3%
same,"Nausea, (%)",[6]; 30 mg (n-192),3.6%
same,"Sedation, (%)",[6]; 30 mg (n-192),4.7%
same,"Somnolence, (%)",[6]; 30 mg (n-192),6.8%
